Measurements taken from patent publication US20180353483A1, “PHARMACEUTICAL COMPOSITIONS AND METHODS FOR INDOLEAMINE, 2, 3-DIOXYGENASE INHIBITION AND INDICATIONS THEREFOR” (Incyte Corporation, priority 2015, published 2018).
Read-outs that look alike come from different tables or passages of the source.

Experiments:
[1] = Dose-escalation study of Compound 1 pharmacokinetics in subjects with advanced malignancies (tablets of Formulations 1 and/or 3, fasted; food effect cohort); format: in vivo, human; settings: for AUC: read-out: AUC0-τ
From the text: Thus, Cmax, Cmin and Tmax were taken directly from the observed plasma concentration data or imputed in some cases. The terminal-phase disposition rate constant (λz) was estimated using a log-linear regression of the concentration data in the terminal disposition phase, and t1/2 was estimated as ln(2)/λz. AUC0-t and AUC0-τ was estimated using the linear trapezoidal rule for increasing concentrations and the log-trapezoidal rule for decreasing concentrations. At the PK steady-state, the apparent oral-dose clearance, CL/F, was estimated as Dose/AUC0-τ, and Vz/F was estimated as Dose/[AUC0-τ*λz].
The log-transformed pharmacokinetic parameters were compared among the BID dose groups using a 1-factor ANOVA with the factor for dose. Dose-dependent exposure parameters (Cmax and AUC) were normalized to a common dose before statistical comparisons were made.
The oral bioavailability (F) and systemic clearance (CL) were estimated. […] This method of estimation assumes near complete oral absorption and the liver being the primary organ for drug clearance. […] The above equation was modified to incorporate the term of Fa to accommodate an incomplete absorption: CL=(QH*Fa*CL/F)/(QH+Fa*CL/F).

[2] = Preclinical PK, renal excretion after IV dose, mice; format: in vivo
[3] = Preclinical PK, cynomolgus monkeys; format: in vivo
[4] = male, dog, in vivo, 500 mg/kg/day
[5] = BID doses 50 to 700 mg, steady state
[6] = human, plasma, oral, 50 mg, 50 mg QD, steady state, geometric mean
[7] = human, plasma, oral, 100 mg, 100 mg BID, steady state, geometric mean
[8] = human, plasma, oral, 300 mg, 300 mg BID, steady state, geometric mean
[9] = human, plasma, oral, 400 mg, 400 mg BID, steady state, geometric mean
[10] = human, plasma, oral, 500 mg, 500 mg BID, steady state, geometric mean
[11] = human, plasma, oral, 600 mg, 600 mg BID, steady state, geometric mean
[12] = human, plasma, oral, 700 mg, 700 mg BID, steady state, geometric mean

In the case of NS(=O)(=O)NCCNc1nonc1C(=NO)Nc1ccc(F)c(Br)c1 [Compound 1, 4-({2-[(aminosulfonyl)amino]ethyl}amino)-N-(3-bromo-4-fluorophenyl)-N′-hydroxy-1,2,5-oxadiazole-3-carboximidamide], the “exponent β of power-function regression, AUC0-12h vs Dose” value [1, 5] is reported as 0.843, the “exponent β of power-function regression, Cmax vs Dose” value [1, 5] is reported as 0.779 and the “increase of mean AUC0-τ by systemic accumulation” value ([1]; BID dosing) is reported as 33%. For the same compound, the “increase of mean Cmax by systemic accumulation” value ([1]; BID dosing) was 16%, the “oral-dose clearance CL/F” value ([1]; geometric mean, pooled 42 subjects, Cycle 1 Day 15) was 55.3 L/h and the “systemic clearance in percent hepatic blood flow” value ([1]; human, estimated) was 29%. For the same compound, the “fraction of oral dose absorbed (Fa)” value ([1]; human, estimated as mean of cynomolgus monkey and beagle dog) was 64%, the AUC(0-t) ([1]; human, plasma, oral, 50 mg, 50 mg BID, steady state, geometric mean, read-out: AUC0-t) was 2.58 µM·h and the AUC ([1]; human, plasma, oral, 50 mg, 50 mg BID, steady state, geometric mean) was 2.83 µM·h. The half-life ([1]; human, plasma, oral, 50 mg, 50 mg BID, steady state, geometric mean, read-out: t1/2 (converted)) was 2.3 h, the AUC(0-t) ([1]; human, plasma, oral, 50 mg, 50 mg BID, steady state, mean ± SD, read-out: AUC0-t) was 2.74 ± 1.08 µM·h and the Cmax [1, 6] was 0.365 µM. For the same compound, the AUC(0-t) ([1]; human, plasma, oral, 50 mg, 50 mg QD, steady state, geometric mean, read-out: AUC0-t) was 1.37 µM·h, the AUC [1, 6] was 1.56 µM·h and the half-life ([1]; human, plasma, oral, 50 mg, 50 mg QD, steady state, geometric mean, read-out: t1/2 (converted)) was 2.4 h. The Cmax [1, 7] was 1.19 µM, the AUC(0-t) ([1]; human, plasma, oral, 100 mg, 100 mg BID, steady state, geometric mean, read-out: AUC0-t) was 4.97 µM·h and the AUC [1, 7] was 5.38 µM·h. The half-life ([1]; human, plasma, oral, 100 mg, 100 mg BID, steady state, geometric mean, read-out: t1/2 (converted)) was 3.2 h, the AUC(0-t) ([1]; human, plasma, oral, 100 mg, 100 mg BID, steady state, mean ± SD, read-out: AUC0-t) was 5.32 ± 2.16 µM·h and the Cmax [1, 8] was 2.44 µM. It also gave an AUC(0-t) ([1]; human, plasma, oral, 300 mg, 300 mg BID, steady state, geometric mean, read-out: AUC0-t) of 8.88 µM·h, an AUC [1, 8] of 9.75 µM·h and an AUC(0-t) ([1]; human, plasma, oral, 300 mg, 300 mg BID, steady state, mean ± SD, read-out: AUC0-t) of 8.92 ± 0.841 µM·h. For the same compound, the Cmax [1, 9] was 3.88 µM, the AUC(0-t) ([1]; human, plasma, oral, 400 mg, 400 mg BID, steady state, geometric mean, read-out: AUC0-t) was 15 µM·h and the AUC [1, 9] was 17.6 µM·h. It also gave a half-life ([1]; human, plasma, oral, 400 mg, 400 mg BID, steady state, geometric mean, read-out: t1/2 (converted)) of 2.6 h, an AUC(0-t) ([1]; human, plasma, oral, 400 mg, 400 mg BID, steady state, mean ± SD, read-out: AUC0-t) of 16.7 ± 6.79 µM·h and a Cmax [1, 10] of 4.48 µM. For the same compound, the AUC(0-t) ([1]; human, plasma, oral, 500 mg, 500 mg BID, steady state, geometric mean, read-out: AUC0-t) was 17.3 µM·h, the AUC [1, 10] was 19.7 µM·h and the half-life ([1]; human, plasma, oral, 500 mg, 500 mg BID, steady state, geometric mean, read-out: t1/2 (converted)) was 2.4 h. For the same compound, the AUC(0-t) ([1]; human, plasma, oral, 500 mg, 500 mg BID, steady state, mean ± SD, read-out: AUC0-t) was 18.2 ± 6.46 µM·h, the Cmax ([1]; human, plasma, oral, 600 mg, 600 mg BID, Fed (high-fat meal), geometric mean) was 4.03 µM and the AUC(0-t) ([1]; human, plasma, oral, 600 mg, 600 mg BID, Fed (high-fat meal), geometric mean, read-out: AUC0-12 h) was 25.8 µM·h. For the same compound, the Cmax ([1]; human, plasma, oral, 600 mg, 600 mg BID, Fed (high-fat meal), mean ± SD) was 4.53 ± 2.52 µM, the AUC(0-t) ([1]; human, plasma, oral, 600 mg, 600 mg BID, Fed (high-fat meal), mean ± SD, read-out: AUC0-12 h) was 29.5 ± 18.2 µM·h and the tmax ([1]; human, plasma, oral, 600 mg, 600 mg BID, Fed (high-fat meal), median, read-out: Tmax) was 6 h. The Cmax ([1]; human, plasma, oral, 600 mg, 600 mg BID, food effect cohort, Fasted, geometric mean) was 4.52 µM, the AUC(0-t) ([1]; human, plasma, oral, 600 mg, 600 mg BID, food effect cohort, Fasted, geometric mean, read-out: AUC0-12 h) was 21.6 µM·h and the Cmax ([1]; human, plasma, oral, 600 mg, 600 mg BID, food effect cohort, Fasted, mean ± SD) was 4.82 ± 2.16 µM. It also gave an AUC(0-t) ([1]; human, plasma, oral, 600 mg, 600 mg BID, food effect cohort, Fasted, mean ± SD, read-out: AUC0-12 h) of 22.9 ± 9.99 µM·h, a Cmax [1, 11] of 4.52 µM and an AUC(0-t) ([1]; human, plasma, oral, 600 mg, 600 mg BID, steady state, geometric mean, read-out: AUC0-t) of 18.3 µM·h. The AUC [1, 11] was 21.6 µM·h, the half-life ([1]; human, plasma, oral, 600 mg, 600 mg BID, steady state, geometric mean, read-out: t1/2 (converted)) was 3.2 h and the AUC(0-t) ([1]; human, plasma, oral, 600 mg, 600 mg BID, steady state, mean ± SD, read-out: AUC0-t) was 19.5 ± 8.4 µM·h. The tmax ([1]; human, plasma, oral, 600 mg, 600 mg BID, steady state, read-out: prolongation of Tmax by a high-fat meal) was 4 h, the Cmax [1, 12] was 6 µM and the AUC(0-t) ([1]; human, plasma, oral, 700 mg, 700 mg BID, steady state, geometric mean, read-out: AUC0-t) was 29.6 µM·h. The AUC [1, 12] was 33.9 µM·h, the half-life ([1]; human, plasma, oral, 700 mg, 700 mg BID, steady state, geometric mean, read-out: t1/2 (converted)) was 2.9 h and the AUC(0-t) ([1]; human, plasma, oral, 700 mg, 700 mg BID, steady state, mean ± SD, read-out: AUC0-t) was 30.8 ± 10.5 µM·h. The half-life ([1]; human, plasma, oral, from accumulation ratio based on AUC, read-out: effective t1/2 (converted)) was about 6 h, the clearance ([1]; human, plasma, oral, read-out: mean systemic clearance CL (converted)) was 417 mL/min and the bioavailability ([1]; plasma, oral, human, estimated, CL/CLoral, read-out: mean absolute bioavailability (F)) was 45%. For the same compound, the systemic accumulation ([1]; repeat 50 mg QD administration) was “no evidence of systemic accumulation”, the “day on which steady-state of PK was observed” value ([1]; repeat BID dosing, judged by trough plasma concentrations) was at most 8 days and the effective half-life ([1]; suggested by accumulation of Cmax and AUC0-τ, BID dosing) was 4 to 6 h. For the same compound, the “renal excretion of unchanged compound” value [2] was “less than 3 % of IV dose”, the “systemic clearance in percent hepatic blood flow” value ([3]; cynomolgus monkey) was 31% and the “fraction of oral dose absorbed (Fa)” value ([3]; cynomolgus monkeys, estimated from preclinical PK studies (not shown)) was 48%. The “renal excretion of unchanged compound” value ([3]; monkeys) was “less than 3 % of IV dose” and the “NOAEL unbound AUC0-24h” value [4] was 7.9 µM·h.
